Measurements reported in the supplement of paper PMC4862054.

System: SK-BR-3
Experiment: normalised response (% of control), CellTiter-Glo; higher = more viable cells (100 = DMSO, 0 = benzethonium chloride kill control)
Conditions: incubation time: 72 h
Summary of the method: (§1)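 Breast cancer cell lines were exposed for 72 h in 384-well plates to compound at 5 concentrations, 10-fold apart, covering a 10,000-fold range fixed for each compound. Plates were read for CellTox Green fluorescence and CellTiter-Glo luminescence and normalised to 0.1 % DMSO (100) and a positive kill control (0). Each value is the normalised signal at one concentration of the series.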

Compound	normalised response [%]
Cc1ccc(-n2nc(C(C)(C)C)cc2NC(=O)Nc2ccc(OCCN3CCOCC3)c3ccccc23)cc1 [Doramapimod] (100 nM)	90.8
C[C@]12CC[C@@H]3c4ccc(O)cc4C[C@@H](CCCCCCCCC[S+]([O-])CCCC(F)(F)C(F)(F)F)[C@H]3[C@@H]1CC[C@@H]2O (some centres not stated) [Fulvestrant] (10 nM)	105
N[C@@H](CSC(c1ccccc1)(c1ccccc1)c1ccccc1)C(=O)O [S-trityl-L-cysteine] (400 nM)	93.5
CCC(C)(C)C(=O)O[C@H]1C[C@@H](C)C=C2C=C[C@H](C)[C@H](CC[C@@H]3C[C@@H](O)CC(=O)O3)[C@H]21 [Simvastatin] (100 nM)	105
Cn1c(CCCC(=O)O)nc2cc(N(CCCl)CCCl)ccc21 [Bendamustine] (100 nM)	108
C#Cc1cccc(Nc2ncnc3cc(OCCOC)c(OCCOC)cc23)c1 [Erlotinib] (100 nM)	112
O=C(CCCCCCC(=O)Nc1ccc([C@H]2O[C@@H](CSc3nc(-c4ccccc4)c(-c4ccccc4)o3)C[C@@H](c3ccc(CO)cc3)O2)cc1)NO [Tubacin] (100 nM)	97.1
CCC1(c2ccc(N)cc2)CCC(=O)NC1=O (configuration not stated) [Aminoglutethimide] (100 nM)	99.3

System: DU-4475
Experiment: as above
Conditions: incubation time: 72 h
Summary of the method: as §1

Compound	normalised response [%]
Cc1ccc(-n2nc(C(C)(C)C)cc2NC(=O)Nc2ccc(OCCN3CCOCC3)c3ccccc23)cc1 [Doramapimod] (100 nM)	93.7
C[C@]12CC[C@@H]3c4ccc(O)cc4C[C@@H](CCCCCCCCC[S+]([O-])CCCC(F)(F)C(F)(F)F)[C@H]3[C@@H]1CC[C@@H]2O (some centres not stated) [Fulvestrant] (10 nM)	101
N[C@@H](CSC(c1ccccc1)(c1ccccc1)c1ccccc1)C(=O)O [S-trityl-L-cysteine] (400 nM)	101
CCC(C)(C)C(=O)O[C@H]1C[C@@H](C)C=C2C=C[C@H](C)[C@H](CC[C@@H]3C[C@@H](O)CC(=O)O3)[C@H]21 [Simvastatin] (100 nM)	98.4
Cn1c(CCCC(=O)O)nc2cc(N(CCCl)CCCl)ccc21 [Bendamustine] (100 nM)	101
C#Cc1cccc(Nc2ncnc3cc(OCCOC)c(OCCOC)cc23)c1 [Erlotinib] (100 nM)	105
O=C(CCCCCCC(=O)Nc1ccc([C@H]2O[C@@H](CSc3nc(-c4ccccc4)c(-c4ccccc4)o3)C[C@@H](c3ccc(CO)cc3)O2)cc1)NO [Tubacin] (100 nM)	102
CCC1(c2ccc(N)cc2)CCC(=O)NC1=O (configuration not stated) [Aminoglutethimide] (100 nM)	100

System: MFM-223
Experiment: as above
Conditions: incubation time: 72 h
Summary of the method: as §1

Compound	normalised response [%]
Cc1ccc(-n2nc(C(C)(C)C)cc2NC(=O)Nc2ccc(OCCN3CCOCC3)c3ccccc23)cc1 [Doramapimod] (100 nM)	91.8
C[C@]12CC[C@@H]3c4ccc(O)cc4C[C@@H](CCCCCCCCC[S+]([O-])CCCC(F)(F)C(F)(F)F)[C@H]3[C@@H]1CC[C@@H]2O (some centres not stated) [Fulvestrant] (10 nM)	104
N[C@@H](CSC(c1ccccc1)(c1ccccc1)c1ccccc1)C(=O)O [S-trityl-L-cysteine] (400 nM)	103
CCC(C)(C)C(=O)O[C@H]1C[C@@H](C)C=C2C=C[C@H](C)[C@H](CC[C@@H]3C[C@@H](O)CC(=O)O3)[C@H]21 [Simvastatin] (100 nM)	105
Cn1c(CCCC(=O)O)nc2cc(N(CCCl)CCCl)ccc21 [Bendamustine] (100 nM)	106
C#Cc1cccc(Nc2ncnc3cc(OCCOC)c(OCCOC)cc23)c1 [Erlotinib] (100 nM)	103
O=C(CCCCCCC(=O)Nc1ccc([C@H]2O[C@@H](CSc3nc(-c4ccccc4)c(-c4ccccc4)o3)C[C@@H](c3ccc(CO)cc3)O2)cc1)NO [Tubacin] (100 nM)	97
CCC1(c2ccc(N)cc2)CCC(=O)NC1=O (configuration not stated) [Aminoglutethimide] (100 nM)	102

System: HDQ-P1
Experiment: as above
Conditions: incubation time: 72 h
Summary of the method: as §1

Compound	normalised response [%]
Cc1ccc(-n2nc(C(C)(C)C)cc2NC(=O)Nc2ccc(OCCN3CCOCC3)c3ccccc23)cc1 [Doramapimod] (100 nM)	93
C[C@]12CC[C@@H]3c4ccc(O)cc4C[C@@H](CCCCCCCCC[S+]([O-])CCCC(F)(F)C(F)(F)F)[C@H]3[C@@H]1CC[C@@H]2O (some centres not stated) [Fulvestrant] (10 nM)	96.1
N[C@@H](CSC(c1ccccc1)(c1ccccc1)c1ccccc1)C(=O)O [S-trityl-L-cysteine] (400 nM)	99
CCC(C)(C)C(=O)O[C@H]1C[C@@H](C)C=C2C=C[C@H](C)[C@H](CC[C@@H]3C[C@@H](O)CC(=O)O3)[C@H]21 [Simvastatin] (100 nM)	102
Cn1c(CCCC(=O)O)nc2cc(N(CCCl)CCCl)ccc21 [Bendamustine] (100 nM)	102
C#Cc1cccc(Nc2ncnc3cc(OCCOC)c(OCCOC)cc23)c1 [Erlotinib] (100 nM)	74
O=C(CCCCCCC(=O)Nc1ccc([C@H]2O[C@@H](CSc3nc(-c4ccccc4)c(-c4ccccc4)o3)C[C@@H](c3ccc(CO)cc3)O2)cc1)NO [Tubacin] (100 nM)	88.2
CCC1(c2ccc(N)cc2)CCC(=O)NC1=O (configuration not stated) [Aminoglutethimide] (100 nM)	98.5

System: BT-549
Experiment: as above
Conditions: incubation time: 72 h
Summary of the method: as §1

Compound	normalised response [%]
Cc1ccc(-n2nc(C(C)(C)C)cc2NC(=O)Nc2ccc(OCCN3CCOCC3)c3ccccc23)cc1 [Doramapimod] (100 nM)	106
C[C@]12CC[C@@H]3c4ccc(O)cc4C[C@@H](CCCCCCCCC[S+]([O-])CCCC(F)(F)C(F)(F)F)[C@H]3[C@@H]1CC[C@@H]2O (some centres not stated) [Fulvestrant] (10 nM)	106
N[C@@H](CSC(c1ccccc1)(c1ccccc1)c1ccccc1)C(=O)O [S-trityl-L-cysteine] (400 nM)	100
CCC(C)(C)C(=O)O[C@H]1C[C@@H](C)C=C2C=C[C@H](C)[C@H](CC[C@@H]3C[C@@H](O)CC(=O)O3)[C@H]21 [Simvastatin] (100 nM)	94.5
Cn1c(CCCC(=O)O)nc2cc(N(CCCl)CCCl)ccc21 [Bendamustine] (100 nM)	106
C#Cc1cccc(Nc2ncnc3cc(OCCOC)c(OCCOC)cc23)c1 [Erlotinib] (100 nM)	105
O=C(CCCCCCC(=O)Nc1ccc([C@H]2O[C@@H](CSc3nc(-c4ccccc4)c(-c4ccccc4)o3)C[C@@H](c3ccc(CO)cc3)O2)cc1)NO [Tubacin] (100 nM)	96.7
CCC1(c2ccc(N)cc2)CCC(=O)NC1=O (configuration not stated) [Aminoglutethimide] (100 nM)	108

System: CAL-148
Experiment: as above
Conditions: incubation time: 72 h
Summary of the method: as §1

Compound	normalised response [%]
Cc1ccc(-n2nc(C(C)(C)C)cc2NC(=O)Nc2ccc(OCCN3CCOCC3)c3ccccc23)cc1 [Doramapimod] (100 nM)	79.7
C[C@]12CC[C@@H]3c4ccc(O)cc4C[C@@H](CCCCCCCCC[S+]([O-])CCCC(F)(F)C(F)(F)F)[C@H]3[C@@H]1CC[C@@H]2O (some centres not stated) [Fulvestrant] (10 nM)	105
N[C@@H](CSC(c1ccccc1)(c1ccccc1)c1ccccc1)C(=O)O [S-trityl-L-cysteine] (400 nM)	102
CCC(C)(C)C(=O)O[C@H]1C[C@@H](C)C=C2C=C[C@H](C)[C@H](CC[C@@H]3C[C@@H](O)CC(=O)O3)[C@H]21 [Simvastatin] (100 nM)	107
Cn1c(CCCC(=O)O)nc2cc(N(CCCl)CCCl)ccc21 [Bendamustine] (100 nM)	117
C#Cc1cccc(Nc2ncnc3cc(OCCOC)c(OCCOC)cc23)c1 [Erlotinib] (100 nM)	115
O=C(CCCCCCC(=O)Nc1ccc([C@H]2O[C@@H](CSc3nc(-c4ccccc4)c(-c4ccccc4)o3)C[C@@H](c3ccc(CO)cc3)O2)cc1)NO [Tubacin] (100 nM)	106
CCC1(c2ccc(N)cc2)CCC(=O)NC1=O (configuration not stated) [Aminoglutethimide] (100 nM)	105

System: Hs578T
Experiment: as above
Conditions: incubation time: 72 h
Summary of the method: as §1

Compound	normalised response [%]
Cc1ccc(-n2nc(C(C)(C)C)cc2NC(=O)Nc2ccc(OCCN3CCOCC3)c3ccccc23)cc1 [Doramapimod] (100 nM)	98.7
C[C@]12CC[C@@H]3c4ccc(O)cc4C[C@@H](CCCCCCCCC[S+]([O-])CCCC(F)(F)C(F)(F)F)[C@H]3[C@@H]1CC[C@@H]2O (some centres not stated) [Fulvestrant] (10 nM)	102
N[C@@H](CSC(c1ccccc1)(c1ccccc1)c1ccccc1)C(=O)O [S-trityl-L-cysteine] (400 nM)	97.3
CCC(C)(C)C(=O)O[C@H]1C[C@@H](C)C=C2C=C[C@H](C)[C@H](CC[C@@H]3C[C@@H](O)CC(=O)O3)[C@H]21 [Simvastatin] (100 nM)	102
Cn1c(CCCC(=O)O)nc2cc(N(CCCl)CCCl)ccc21 [Bendamustine] (100 nM)	103
C#Cc1cccc(Nc2ncnc3cc(OCCOC)c(OCCOC)cc23)c1 [Erlotinib] (100 nM)	100
O=C(CCCCCCC(=O)Nc1ccc([C@H]2O[C@@H](CSc3nc(-c4ccccc4)c(-c4ccccc4)o3)C[C@@H](c3ccc(CO)cc3)O2)cc1)NO [Tubacin] (100 nM)	94.6
CCC1(c2ccc(N)cc2)CCC(=O)NC1=O (configuration not stated) [Aminoglutethimide] (100 nM)	98.3

System: MDA-MB-231
Experiment: as above
Conditions: incubation time: 72 h
Summary of the method: as §1

Compound	normalised response [%]
Cc1ccc(-n2nc(C(C)(C)C)cc2NC(=O)Nc2ccc(OCCN3CCOCC3)c3ccccc23)cc1 [Doramapimod] (100 nM)	96.5
C[C@]12CC[C@@H]3c4ccc(O)cc4C[C@@H](CCCCCCCCC[S+]([O-])CCCC(F)(F)C(F)(F)F)[C@H]3[C@@H]1CC[C@@H]2O (some centres not stated) [Fulvestrant] (10 nM)	106
N[C@@H](CSC(c1ccccc1)(c1ccccc1)c1ccccc1)C(=O)O [S-trityl-L-cysteine] (400 nM)	101
CCC(C)(C)C(=O)O[C@H]1C[C@@H](C)C=C2C=C[C@H](C)[C@H](CC[C@@H]3C[C@@H](O)CC(=O)O3)[C@H]21 [Simvastatin] (100 nM)	98.6
Cn1c(CCCC(=O)O)nc2cc(N(CCCl)CCCl)ccc21 [Bendamustine] (100 nM)	104
C#Cc1cccc(Nc2ncnc3cc(OCCOC)c(OCCOC)cc23)c1 [Erlotinib] (100 nM)	118
O=C(CCCCCCC(=O)Nc1ccc([C@H]2O[C@@H](CSc3nc(-c4ccccc4)c(-c4ccccc4)o3)C[C@@H](c3ccc(CO)cc3)O2)cc1)NO [Tubacin] (100 nM)	97
CCC1(c2ccc(N)cc2)CCC(=O)NC1=O (configuration not stated) [Aminoglutethimide] (100 nM)	104

System: CAL-51
Experiment: as above
Conditions: incubation time: 72 h
Summary of the method: as §1

Compound	normalised response [%]
Cc1ccc(-n2nc(C(C)(C)C)cc2NC(=O)Nc2ccc(OCCN3CCOCC3)c3ccccc23)cc1 [Doramapimod] (100 nM)	99.5
C[C@]12CC[C@@H]3c4ccc(O)cc4C[C@@H](CCCCCCCCC[S+]([O-])CCCC(F)(F)C(F)(F)F)[C@H]3[C@@H]1CC[C@@H]2O (some centres not stated) [Fulvestrant] (10 nM)	111
N[C@@H](CSC(c1ccccc1)(c1ccccc1)c1ccccc1)C(=O)O [S-trityl-L-cysteine] (400 nM)	105
CCC(C)(C)C(=O)O[C@H]1C[C@@H](C)C=C2C=C[C@H](C)[C@H](CC[C@@H]3C[C@@H](O)CC(=O)O3)[C@H]21 [Simvastatin] (100 nM)	104
Cn1c(CCCC(=O)O)nc2cc(N(CCCl)CCCl)ccc21 [Bendamustine] (100 nM)	107
C#Cc1cccc(Nc2ncnc3cc(OCCOC)c(OCCOC)cc23)c1 [Erlotinib] (100 nM)	105
O=C(CCCCCCC(=O)Nc1ccc([C@H]2O[C@@H](CSc3nc(-c4ccccc4)c(-c4ccccc4)o3)C[C@@H](c3ccc(CO)cc3)O2)cc1)NO [Tubacin] (100 nM)	89.2
CCC1(c2ccc(N)cc2)CCC(=O)NC1=O (configuration not stated) [Aminoglutethimide] (100 nM)	117
